Experimental findings from publication PMC9148403, “1,3,5-triazines inhibit osteosarcoma and avert lung metastasis in a patient-derived orthotopic xenograft mouse model with favorable pharmacokinetics” (Iranian Journal of Basic Medical Sciences, 2022) are described below.

The IC50 is the concentration needed to halve the response being measured.

For one data set, the system named is K562. The data set is described as follows: Cellular antiproliferation assay (CCK-8), K562. The class given is cell-based, human. As to conditions: K562 cells, read-out: Cell growth inhibition IC50 K562.
The subject of a further data set is Saos-2. The data set is described as follows: Cellular antiproliferation assay (CCK-8), Saos-2. The class given is cell-based, human. The settings on record: Saos-2 cells, read-out: Cell growth inhibition IC50 Saos-2. The method, then: The human osteosarcoma cancer cell lines MG-63, U2-OS, and Saos-2 were purchased from CBSIBCB of the Chinese Academy of Sciences (Shanghai, China)
Cellular antiproliferation assay using cell counting kit (CCK-8)
The CCK-8 assay was used in the current study to analyze the effect of compounds on cellular proliferation. The transfected cells were seeded in a 96-well plate, and to this CCK-8 (20 µl) was added. The enzyme microplate reader at 450 nm was used to record the absorbance. The inhibitory effect on cellular proliferation was obtained as per the given formula: Inhibitory activity (%) = (1 - Atest/Acontrol) × 100 %.

The target of another data set is PI3K. Description: PI3K luminescent kinase assay (Promega). The class given is biochemical. As to conditions: read-out: Kinase inhibition IC50 PI3K. From the text: (§1) PI3K and mTOR kinase inhibition assay
(§2) The inhibitory activity of developed molecules against PI3K and mTOR was identified using luminescent kinase assay, and Lance Ultra assay from Promega, USA, respectively as per our earlier reported procedure ([38]).

The next data set has as its target mTOR (Homo sapiens, UniProt P42345). Description: mTOR Lance Ultra kinase assay. The class given is biochemical. As to conditions: read-out: Kinase inhibition IC50 mTOR.
Text: as §1, §2

For a further data set, the system named is KU812. Description: Cellular antiproliferation assay (CCK-8), KU812. The class given is cell-based, human. As to conditions: KU812 cells, read-out: Cell growth inhibition IC50 KU812.
Data set [1] deals with Saos-2 cells. Description: Flow cytometric apoptosis assay (Annexin V/PI). The settings on record: Saos-2 cells, 10, 20 and 30 µM. The class given is cell-based, human. As for the experimental part:
Flow cytometric apoptosis assay
The effect of compound 8a (0, 10, 20, and 30 µM) on apoptosis was investigated on Saos-2 cells as per our earlier reported procedure using a FACSCalibur flow cytometer with CellQuest V.3.3 software (BD Biosciences, USA) ([38]).

A short description of data set [2]: Pharmacokinetic assessment in SD rats. The class given is in vivo. As to conditions: for AUC 0- INF / C max / T max / T ½: rat, in vivo. As for the experimental part: Pharmacokinetic assessment
The compound 8a was administered to female SD rats in a single dose of 1 and 5 mg/kg using intra-venomous and per-oral route in the vehicle. The blood samples from the rats were collected in a timely manner starting from 2 min to 24 hr. The serum was extracted from the blood-aliquots for the estimation of various pharmacokinetic parameters (T1/2, Tmax, Cmax, AUC0-INF) developed using WinNonlin software using LC-MS/MS (Applied Biosystem, USA).

Data set [3] has as its system Saos-2 cells. Description: Cell cycle analysis by flow cytometry. As to conditions: Saos-2 cells, 10, 20 and 30 µM. The class given is cell-based, human. As for the experimental part:
The effect of compound 8a (0, 10, 20, and 30 µM) was investigated on the cell cycle of Saos-2 cells as per our earlier reported procedure using a FACSCalibur flow cytometer with CellQuest V.3.3 software (BD Biosciences, USA) ([38]).

In data set [4] the test system is patient-derived osteosarcoma. The data set is described as follows: Osteosarcoma patient-derived orthotopic xenograft (PDOX) mouse model. The class given is in vivo, Athymic nu/nu nude mice. As for the experimental part: Surgical orthotopic implantation (SOI) for the establishment of the osteosarcoma PDOX model
The PDOX model in Athymic nu/nu nude mice was established according to our earlier reported procedure ([38]). The tumor tissue for implantation was obtained from a OS patient with written informed consent.
The mice were arbitrarily categorized into four dissimilar groups (n=6), and the treatment schedule lasted for 14 days as follows. The compound 8a was dissolved in the solution of PEG400/Tween 80/Saline solution at 10/10/80 % in volume, respectively prior to intraperitoneal administration.
Groups 2, 3, and 4 received compound 8a (2, 5, and 10 mg/kg, respectively, IP, daily)
The control animals received the vehicle only.
The length and width of the tumor along with the bodyweight of mice were recorded.
The tumor volume was calculated with the following formula:
Tumor volume (mm^3)= length (mm) × width (mm) × […])⁄2
Examination of lung histopathology
At the end of the experiment, the lung tissues were harvested and fixed in formalin (10%). The tissues were further entrenched in paraffin, sectioned using a microtome into 5-μm thickness. The resulting sections were dyed using hematoxylin-eosin (HE).

As for `Cc1nc(NC(=O)c2ccc(CN3CCN(c4ccc(O)cc4)CC3)cc2)nc(Nc2nccc(-c3nccs3)n2)n1` [Compound 8e], the IC50 in the data set on K562 is 887 nM; in the data set with Saos-2, 478 nM; on PI3K, 987 nM; on mTOR it was 456 nM; in the data set on KU812, 1140 nM.

With `Cc1ccc(N2CCN(Cc3ccc(C(=O)Nc4nc(C)nc(Nc5nccc(-c6nccs6)n5)n4)cc3)CC2)cc1` [Compound 8c], the IC50 in the data set on K562 was found to be 900 nM; in the data set on Saos-2, 530 nM; on PI3K it was 967 nM; at mTOR, 490 nM; with KU812, 1030 nM.

As for `COc1ccc(N2CCN(Cc3ccc(C(=O)Nc4nc(C)nc(Nc5nccc(-c6nccs6)n5)n4)cc3)CC2)cc1` [Compound 8f], the IC50 worked out at 1200 nM in the data set on K562; 905 nM with Saos-2; 1250 nM at PI3K; 834 nM on mTOR; 1230 nM in the data set with KU812.

Consider `Cc1nc(NC(=O)c2ccc(CN3CCN(c4ccc(Br)cc4)CC3)cc2)nc(Nc2nccc(-c3nccs3)n2)n1` [Compound 8b], for which the IC50 came to 730 nM in the data set on K562; 268 nM with Saos-2; 885 nM on PI3K; 389 nM at mTOR; 830 nM in the data set with KU812.

As for `Cc1nc(NC(=O)c2ccc(CN3CCN(c4ccc(Cl)cc4)CC3)cc2)nc(Nc2nccc(-c3nccs3)n2)n1` [Compound 8a], the “Effect on apoptosis of Saos-2 cells” value in the data set with Saos-2 cells [1] was “dose-dependently increases apoptosis”. Moreover, in data set [2] (SD rats, 1 mg/kg IV and 5 mg/kg PO single dose), the “Tolerability in the pharmacokinetic study” value is given as “well-tolerated”. The “AUC 0- INF” value in data set [2] (iv, 1 mg/kg) came to 61.201 µg·h/mL; in [2] (po, 5 mg/kg), 297.326 µg·h/mL. Besides, the C max in data set [2] (iv, 1 mg/kg) turned out to be 8126 ng/mL; in data set [2] (po, 5 mg/kg), 410 ng/mL. In addition, the T max is 0.13 h in data set [2] (iv, 1 mg/kg) and 2.67 h in [2] (po, 5 mg/kg). Further, the “T ½” value is 0.75 h in data set [2] (iv, 1 mg/kg) and 3.5 h in data set [2] (po, 5 mg/kg). Also, the “Effect on cell cycle of Saos-2 cells” value with Saos-2 cells [3] is “G2/M phase arrest”. In addition, the IC50 in the data set on K562 was 620 nM; in the data set on Saos-2, 210 nM; on PI3K it was 786 nM; on mTOR, 345 nM; in the data set with KU812 it was 722 nM. Further, the “Effect on lung metastasis (lung histopathology)” value was “does not have a significant effect” in data set [4] (PDOX mice, 2 mg/kg IP daily, 14 days); “less necrotic lesions and minimum interstitial hemorrhages” in [4] (PDOX mice, 5 mg/kg IP daily, 14 days). For the same compound, in [4] (PDOX mice, 10 mg/kg IP daily, 14 days), the “Effect on lung metastasis (lung architecture, histopathology)” value is given as “significantly restored close to normal”. The “Body weight of mice” value in [4] (PDOX mice, 2, 5 and 10 mg/kg IP daily, 14 days, vs control) is listed as “improvement in body weight”. Also, the Tumor volume entry in data set [4] (PDOX mice, 2, 5 and 10 mg/kg IP daily, at the end of the study) is “significantly reduced”.

Regarding `Cc1nc(NC(=O)c2ccc(CN3CCN(c4ccc([N+](=O)[O-])cc4)CC3)cc2)nc(Nc2nccc(-c3nccs3)n2)n1` [Compound 8d], the IC50 in the data set with K562 amounted to 822 nM; with Saos-2 it was 340 nM; at PI3K it was 905 nM; on mTOR, 414 nM; in the data set on KU812, 950 nM.
